Values quoted from earlier work, collected in patent US20140194400A1, “Nasal Pharmaceutical Formulation” (Meda Pharma GmbH & Co., Kg, priority 2011, published 2014).

## C[C@@H]1C[C@H]2[C@@H]3C[C@H](F)C4=CC(=O)C=C[C@]4(C)[C@@]3(F)[C@@H](O)C[C@]2(C)[C@@]1(O)C(=O)SCF [fluticasone]
  oral absorption: about 1%
